Source: article PMC3463587, “A Series of Beta-Carboline Derivatives Inhibit the Kinase Activity of PLKs” (PLoS ONE, 2012)

Assays:
HeLa cells = assay: FACS cell cycle analysis (PI), HeLa; type: cell-based, human
Method: It is well documented that PLK1 is involved in multiple steps in mitosis, such as centrosome maturation and establishment of bipolar spindle. […] Therefore, the down-regulation of PLK1 would change the distribution of cells in different cell cycle stages. To test this possibility, fluorescence-activated cell sorter (FACS) analysis was used to analyze the DNA content of HeLa cells treated with the identified PLK1 inhibitors, DH281, DH285, and DH287. HeLa cells were first incubated in the absence and presence of these compounds at different concentrations (0, 0.12, 0.48 and 1.92 µM) for 48 hr. […] Treatment with a lower concentration of the compounds (0.12 and 0.48 µM) also led to an obvious increase of the cell population in G2/M phase (Figure 4A, Table 3). Moreover, the proportion of HeLa cells in G2/M phase increased over time after incubation in the presence of 0.8 µM of DH281, DH285 and DH287 (Figure 4B, Table 4). […] We also determined the cell cycle distribution of the non-cancer MRC5 cells after treatment with DH281 at different concentrations. […] It is also possible that inhibition of the kinase activity of the whole PLK family by beta-carboline compounds results in the defect in cell cycle progression.
[…] The floated and attached cells were treated by trypsinization and washed with cold PBS. The cells were then fixed with 70% (v/v) ethanol at 4°C overnight. The fixed cells were washed twice with PBS and incubated with 50 µg/mL RNase A (Sigma, USA) and 50 µg/mL propidium iodide (PI) (Sigma, USA) at 37°C for 30 min.

[1] = tested on: cyclin B1 protein in HeLa cells; assay: Cyclin B1 protein level (Western blotting, FACS); type: cell-based, human; conditions: 1.21 µM, 24 hr
Method: As the inhibitory kinase for cyclin-dependent kinase (CDK), Wee1 is one of the substrates of PLK1 and this phosphorylation stimulates Wee1 degradation. We expect that the inhibition of PLK1 impairs the phosphorylation of Wee1, thereby resulting in elevated Wee1 protein levels. To test this possibility, we examined the protein levels of Wee1 in HeLa cells after treatment with 1.21 µM beta-carboline compounds for 24 hr. […] PLK1 also phosphorylates cyclin B1 and this phosphorylation promotes the nuclear localization of cyclin B1 [36]. After treatment with these beta-carboline compounds, a slight increase of cyclin B1 protein was observed (Figure 6B), and this increase could be a consequence of accumulation of cells in G2/M phase. However, the change of cyclin B1 levels is much less significant compared to the increase of Wee1 levels after treatment with these compounds.
HeLa cells were incubated with or without 1.21 µM DH281, DH285 and DH287 for 24 hr. The cells were washed twice with cold 1×PBS and lysed in RAPI buffer (Applygen technologies Inc.) for 30 min and centrifuged at 14,000 rpm for 20 min at 4°C. We separated 15 µl of total protein (1 µg/ µl) with 12% SDS-PAGE gels and transferred the proteins to PVDF membrane. […] The protein bands were detected using ECL System (Piscataway, New Jersey, USA). […]

HepG2 cells = assay: MTT cell proliferation assay, HepG2; type: cell-based; conditions: Homo sapiens, 48 hr
Description: (§1) BI2536 was purchased from Selleck (Selleck, USA).

PC3 cells = assay: MTT cell proliferation assay, PC3; type: cell-based; conditions: Homo sapiens, PC-3, 48 hr
Description: as §1

| Compound | cells in G1 (HeLa cells; 0.12 µM, 48 hr) | cells in G2 (G2/M) (HeLa cells; 0.12 µM, 48 hr) | cells in S (HeLa cells; 0.12 µM, 48 hr) | cells in G1 (HeLa cells; 0.48 µM, 48 hr) | cells in G2 (G2/M) (HeLa cells; 0.48 µM, 48 hr) | cells in S (HeLa cells; 0.48 µM, 48 hr) | cells in G1 (HeLa cells; 0.8 µM, 24 hr) | cells in G2 (G2/M) (HeLa cells; 0.8 µM, 24 hr) | cells in S (HeLa cells; 0.8 µM, 24 hr) | cells in G1 (HeLa cells; 0.8 µM, 36 hr) | cells in G2 (G2/M) (HeLa cells; 0.8 µM, 36 hr) | cells in S (HeLa cells; 0.8 µM, 36 hr) | cells in G1 (HeLa cells; 0.8 µM, 48 hr) | cells in G2 (G2/M) (HeLa cells; 0.8 µM, 48 hr) | cells in S (HeLa cells; 0.8 µM, 48 hr) | cells in G1 (HeLa cells; 0.8 µM, 60 hr) | cells in G2 (G2/M) (HeLa cells; 0.8 µM, 60 hr) | cells in S (HeLa cells; 0.8 µM, 60 hr) | cells in G1 (HeLa cells; 1.92 µM, 48 hr) | cells in G2 (G2/M) (HeLa cells; 1.92 µM, 48 hr) | further results |
| --- | --- | --- | --- | --- | --- | --- | --- | --- | --- | --- | --- | --- | --- | --- | --- | --- | --- | --- | --- | --- | --- |
| Cc1c2c(cc[n+]1Cc1ccccc1)c1ccc(OCc3ccc(F)cc3)cc1n2CCCc1ccccc1 [DH281] | 70.5% | 10.1% | 19.4% | 55.3% | 14.4% | 30.3% | 64.1% | 10.2% | 25.7% | 53.4% | 18.9% | 27.7% | 42.4% | 16.6% | 41.1% | 33.9% | 14.6% | 51.6% | 38.4% | 26.7% | cells in S (HeLa cells; 1.92 µM, 48 hr): 34.9%; cyclin B1 protein level [1]: did not show a significant increase of cyclin B1 protein; IC50 (HepG2 cells): 2240 ± 40 nM; IC50 (PC3 cells): 940 ± 230 nM |
| Cc1c2c(cc[n+]1Cc1ccccc1)c1ccc(OCc3ccccc3)cc1n2Cc1ccccc1 [DH287] | 77.3% | 6.86% | 15.9% | 64.8% | 14.2% | 21.0% | 64.5% | 10.2% | 25.3% | 54.6% | 15.9% | 29.5% | 49.3% | 13.0% | 37.8% | 30.6% | 16.6% | 52.8% | 51.9% | 21.0% | cyclin B1 protein level [1]: did not show a significant increase of cyclin B1 protein; IC50 (HepG2 cells): 10700 ± 310 nM; IC50 (PC3 cells): 2860 ± 190 nM |
